Assays:
[1] = test system: Proto-oncogene tyrosine-protein kinase receptor Ret (Homo sapiens), P07949 [M918T]; test: Inhibition of human partial length RET M918T mutant (E713 to D1014 residues) expressed in bacterial expression system at 1 uM by Kinomescan method relative to control
[2] = test system: Epidermal growth factor receptor (Homo sapiens), P00533 [L861Q]; test: Inhibition of human partial length EGFR L861Q mutant (R669 to V1011 residues) expressed in bacterial expression system at 1 uM by Kinomescan method relative to control
[3] = biological target: Serine/threonine-protein kinase PLK1 (Homo sapiens) (UniProt P53350); test: Inhibition of wild-type human partial length PLK1 (A33 to F325 residues) expressed in mammalian expression system at 1 uM by Kinomescan method relative to control
[4] = biological target: Serine/threonine-protein kinase MARK2 (Homo sapiens) (UniProt Q7KZI7); test: Inhibition of wild-type human partial length MARK2 (M1 to R450 residues) expressed in bacterial expression system at 1 uM by Kinomescan method relative to control
[5] = test system: Phosphatidylinositol 4,5-bisphosphate 3-kinase catalytic subunit alpha isoform (Homo sapiens), P42336 [C420R]; test: Inhibition of human partial length PIK3CA C420R mutant (R108 to N1068 residues) expressed in mammalian expression system at 1 uM by Kinomescan method relative to control
[6] = biological target: Ribosomal protein S6 kinase alpha-1 (Homo sapiens) (UniProt Q15418); test: Inhibition of wild-type human partial length C-terminal RSK1 kinase domain 2 (P360 to L681 residues) expressed in bacterial expression system at 1 uM by Kinomescan method relative to control
[7] = biological target: Serine/threonine-protein kinase Nek10 (Homo sapiens) (UniProt Q6ZWH5); test: Inhibition of wild-type human partial length NEK10 (L488 to R809 residues) expressed in mammalian expression system at 1 uM by Kinomescan method relative to control
[8] = biological target: Serine/threonine-protein kinase ULK2 (Homo sapiens) (UniProt Q8IYT8); test: Inhibition of wild-type human partial length ULK2 (M1 to S301 residues) expressed in mammalian expression system at 1 uM by Kinomescan method relative to control
[9] = biological target: Discoidin domain-containing receptor 2 (Homo sapiens) (UniProt Q16832); test: Inhibition of wild-type human partial length DDR2 (V555 to E855 residues) expressed in mammalian expression system at 1 uM by Kinomescan method relative to control
[10] = test system: Mast/stem cell growth factor receptor Kit (Homo sapiens), P10721 [UNDEFINED MUTATION]; test: Inhibition of human partial length KIT V559D/V654 double mutant (Y545 to D952 residues) expressed in bacterial expression system at 1 uM by Kinomescan method relative to control
[11] = biological target: Platelet-derived growth factor receptor beta (Homo sapiens) (UniProt P09619); test: Inhibition of wild-type human partial length PDGFRB (V582 to Y1009 residues) expressed in bacterial expression system at 1 uM by Kinomescan method relative to control
[12] = test system: Tyrosine-protein kinase ABL1 (Homo sapiens), P00519 [F317L]; test: Inhibition of human non-phosphorylated ABL1 F317L mutant (S229 to K512 residues) expressed in mammalian expression system at 1 uM by Kinomescan method relative to control
[13] = biological target: Vascular endothelial growth factor receptor 2 (Homo sapiens) (UniProt P35968); test: Inhibition of wild-type human partial length VEGFR2 (R787 to P1253 residues) expressed in mammalian expression system at 1 uM by Kinomescan method relative to control
[14] = test system: Epidermal growth factor receptor (Homo sapiens), P00533 [UNDEFINED MUTATION]; test: Inhibition of human partial length EGFR E746-A750del mutant expressed in bacterial expression system at 1 uM by Kinomescan method relative to control
[15] = biological target: Platelet-derived growth factor receptor alpha (Homo sapiens) (UniProt P16234); test: Inhibition of wild-type human partial length PDGFRA (V575 to D1002 residues) expressed in mammalian expression system at 10 uM by Kinomescan method relative to control
[16] = biological target: Rho-associated protein kinase 1 (Homo sapiens) (UniProt Q13464); test: Inhibition of wild-type human partial length ROCK1 (M1 to R415 residues) expressed in mammalian expression system at 10 uM by Kinomescan method relative to control
[17] = biological target: Mitogen-activated protein kinase kinase kinase 11 (Homo sapiens) (UniProt Q16584); test: Inhibition of wild-type human partial length MLK3 (I77 to W399 residues) expressed in bacterial expression system at 10 uM by Kinomescan method relative to control
[18] = biological target: Serine/threonine-protein kinase 35 (Homo sapiens) (UniProt Q8TDR2); test: Inhibition of wild-type human partial length STK35 (G182 to A534 residues) expressed in bacterial expression system at 10 uM by Kinomescan method relative to control
[19] = biological target: Serine/threonine-protein kinase WNK2 (Homo sapiens) (UniProt Q9Y3S1); test: Inhibition of wild-type human partial length WNK2 (V47 to D482 residues) expressed in mammalian expression system at 10 uM by Kinomescan method relative to control
[20] = test system: Receptor-type tyrosine-protein kinase FLT3 (Homo sapiens), P36888 [D835V]; test: Inhibition of human partial length FLT3 D835V mutant (V592 to Y969 residues) expressed in bacterial expression system at 10 uM by Kinomescan method relative to control
[21] = biological target: Bone morphogenetic protein receptor type-1A (Homo sapiens) (UniProt P36894); test: Inhibition of wild-type human partial length BMPR1A (Q214 to I532 residues) expressed in bacterial expression system at 10 uM by Kinomescan method relative to control
[22] = biological target: Mitogen-activated protein kinase kinase kinase 4 (Homo sapiens) (UniProt Q9Y6R4); test: Inhibition of wild-type human partial length MAP3K4 (G1319 to E1608 residues) expressed in bacterial expression system at 10 uM by Kinomescan method relative to control
[23] = biological target: Tyrosine-protein kinase HCK (Homo sapiens) (UniProt P08631); test: Inhibition of wild-type human full length HCK (M22 to P526 residues) expressed in bacterial expression system at 10 uM by Kinomescan method relative to control
[24] = biological target: Testis-specific serine/threonine-protein kinase 3 (Homo sapiens) (UniProt Q96PN8); test: Inhibition of wild-type human full length TSSK3 (M1 to T268 residues) expressed in mammalian expression system at 10 uM by Kinomescan method relative to control
[25] = biological target: Myosin-IIIb (Homo sapiens) (UniProt Q8WXR4); test: Inhibition of wild-type human partial length MYO3B (M1 to D357 residues) expressed in bacterial expression system at 10 uM by Kinomescan method relative to control
[26] = biological target: Calcium/calmodulin-dependent protein kinase type 1 (Homo sapiens) (UniProt Q14012); test: Inhibition of wild-type human full length CAMK1 (M1 to L370 residues) expressed in bacterial expression system at 10 uM by Kinomescan method relative to control

Chain of Vascular endothelial growth factor receptor 2 (Homo sapiens) (P35968 whole entry, the tested form may be a part): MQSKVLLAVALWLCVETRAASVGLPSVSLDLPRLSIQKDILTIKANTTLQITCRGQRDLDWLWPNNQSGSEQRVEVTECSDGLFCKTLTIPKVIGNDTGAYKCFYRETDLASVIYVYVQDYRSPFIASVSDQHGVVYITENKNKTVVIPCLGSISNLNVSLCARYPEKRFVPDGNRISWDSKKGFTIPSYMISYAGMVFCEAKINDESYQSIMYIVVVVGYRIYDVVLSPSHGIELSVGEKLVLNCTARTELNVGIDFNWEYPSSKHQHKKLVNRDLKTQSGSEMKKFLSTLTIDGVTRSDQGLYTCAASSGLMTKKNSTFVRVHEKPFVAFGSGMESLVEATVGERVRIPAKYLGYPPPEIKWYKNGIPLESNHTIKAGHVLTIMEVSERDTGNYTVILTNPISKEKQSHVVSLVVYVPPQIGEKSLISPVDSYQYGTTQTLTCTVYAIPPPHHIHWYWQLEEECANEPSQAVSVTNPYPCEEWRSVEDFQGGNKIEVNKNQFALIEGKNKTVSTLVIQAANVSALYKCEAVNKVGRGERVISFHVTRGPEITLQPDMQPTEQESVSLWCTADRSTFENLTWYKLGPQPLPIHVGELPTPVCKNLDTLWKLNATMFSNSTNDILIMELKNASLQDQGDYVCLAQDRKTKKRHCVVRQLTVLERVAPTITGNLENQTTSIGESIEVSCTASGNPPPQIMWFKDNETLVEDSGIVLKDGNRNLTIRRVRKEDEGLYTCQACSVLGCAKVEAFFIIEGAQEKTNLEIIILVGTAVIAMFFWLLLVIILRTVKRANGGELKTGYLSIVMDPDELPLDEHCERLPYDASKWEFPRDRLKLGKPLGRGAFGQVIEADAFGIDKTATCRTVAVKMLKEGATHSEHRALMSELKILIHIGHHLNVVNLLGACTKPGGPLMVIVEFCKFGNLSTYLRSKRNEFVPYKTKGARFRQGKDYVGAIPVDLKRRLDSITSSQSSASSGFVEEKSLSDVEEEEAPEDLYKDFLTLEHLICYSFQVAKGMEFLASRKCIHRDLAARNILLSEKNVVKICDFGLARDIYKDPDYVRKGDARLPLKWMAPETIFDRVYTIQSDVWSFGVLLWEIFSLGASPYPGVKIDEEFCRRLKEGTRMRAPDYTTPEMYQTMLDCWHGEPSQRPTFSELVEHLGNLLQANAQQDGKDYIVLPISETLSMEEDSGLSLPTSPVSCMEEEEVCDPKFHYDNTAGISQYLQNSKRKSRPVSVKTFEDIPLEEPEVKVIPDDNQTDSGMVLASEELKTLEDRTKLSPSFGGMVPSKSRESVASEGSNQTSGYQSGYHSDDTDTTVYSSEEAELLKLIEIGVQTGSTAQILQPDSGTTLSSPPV
Chain of Serine/threonine-protein kinase PLK1 (Homo sapiens) (P53350 whole entry, the tested form may be a part): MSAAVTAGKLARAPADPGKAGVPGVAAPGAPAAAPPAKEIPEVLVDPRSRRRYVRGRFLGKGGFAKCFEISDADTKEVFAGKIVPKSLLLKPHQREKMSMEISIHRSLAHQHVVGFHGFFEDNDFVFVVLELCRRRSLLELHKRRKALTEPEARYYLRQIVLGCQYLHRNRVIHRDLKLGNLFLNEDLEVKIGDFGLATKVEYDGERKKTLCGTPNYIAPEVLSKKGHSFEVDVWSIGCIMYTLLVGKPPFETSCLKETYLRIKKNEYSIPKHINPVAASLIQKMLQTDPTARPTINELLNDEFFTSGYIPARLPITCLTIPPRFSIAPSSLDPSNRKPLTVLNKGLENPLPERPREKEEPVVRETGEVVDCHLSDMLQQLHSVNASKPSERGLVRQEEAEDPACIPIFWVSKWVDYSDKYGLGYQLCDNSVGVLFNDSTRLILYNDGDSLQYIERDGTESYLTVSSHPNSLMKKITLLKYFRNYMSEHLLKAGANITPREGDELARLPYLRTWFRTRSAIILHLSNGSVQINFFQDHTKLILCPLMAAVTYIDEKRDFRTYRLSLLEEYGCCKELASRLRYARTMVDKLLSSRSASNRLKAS
Chain of Phosphatidylinositol 4,5-bisphosphate 3-kinase catalytic subunit alpha isoform (Homo sapiens), P42336 [C420R] (P42336 whole entry C420R, the tested form may be a part, canonical isoform): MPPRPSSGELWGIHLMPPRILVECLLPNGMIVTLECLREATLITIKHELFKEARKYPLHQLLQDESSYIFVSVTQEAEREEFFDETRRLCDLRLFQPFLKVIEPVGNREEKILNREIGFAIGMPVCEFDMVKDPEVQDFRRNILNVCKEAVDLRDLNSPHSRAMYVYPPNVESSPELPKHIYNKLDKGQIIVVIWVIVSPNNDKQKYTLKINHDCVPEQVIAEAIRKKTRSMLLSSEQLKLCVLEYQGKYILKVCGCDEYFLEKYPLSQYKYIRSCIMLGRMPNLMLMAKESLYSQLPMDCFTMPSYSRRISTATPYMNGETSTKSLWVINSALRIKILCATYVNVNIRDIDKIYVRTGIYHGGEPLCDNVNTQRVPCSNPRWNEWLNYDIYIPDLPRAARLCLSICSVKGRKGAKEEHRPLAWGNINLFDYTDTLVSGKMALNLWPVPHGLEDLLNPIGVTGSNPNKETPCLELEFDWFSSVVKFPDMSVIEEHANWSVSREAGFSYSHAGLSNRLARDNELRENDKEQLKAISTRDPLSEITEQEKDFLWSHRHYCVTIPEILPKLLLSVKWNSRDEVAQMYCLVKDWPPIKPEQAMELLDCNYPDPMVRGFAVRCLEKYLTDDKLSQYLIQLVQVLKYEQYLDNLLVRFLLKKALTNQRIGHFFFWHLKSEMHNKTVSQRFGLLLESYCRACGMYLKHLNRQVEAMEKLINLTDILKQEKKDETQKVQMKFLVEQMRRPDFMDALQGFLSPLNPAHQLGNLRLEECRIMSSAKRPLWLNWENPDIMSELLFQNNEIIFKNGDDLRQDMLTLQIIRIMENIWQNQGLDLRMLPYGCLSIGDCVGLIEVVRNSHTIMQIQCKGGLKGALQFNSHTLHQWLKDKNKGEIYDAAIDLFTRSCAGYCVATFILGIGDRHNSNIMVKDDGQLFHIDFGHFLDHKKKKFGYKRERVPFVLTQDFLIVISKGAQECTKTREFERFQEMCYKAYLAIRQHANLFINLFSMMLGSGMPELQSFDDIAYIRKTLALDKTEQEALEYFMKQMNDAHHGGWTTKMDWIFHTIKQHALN
Chain of Serine/threonine-protein kinase Nek10 (Homo sapiens) (Q6ZWH5 whole entry, the tested form may be a part): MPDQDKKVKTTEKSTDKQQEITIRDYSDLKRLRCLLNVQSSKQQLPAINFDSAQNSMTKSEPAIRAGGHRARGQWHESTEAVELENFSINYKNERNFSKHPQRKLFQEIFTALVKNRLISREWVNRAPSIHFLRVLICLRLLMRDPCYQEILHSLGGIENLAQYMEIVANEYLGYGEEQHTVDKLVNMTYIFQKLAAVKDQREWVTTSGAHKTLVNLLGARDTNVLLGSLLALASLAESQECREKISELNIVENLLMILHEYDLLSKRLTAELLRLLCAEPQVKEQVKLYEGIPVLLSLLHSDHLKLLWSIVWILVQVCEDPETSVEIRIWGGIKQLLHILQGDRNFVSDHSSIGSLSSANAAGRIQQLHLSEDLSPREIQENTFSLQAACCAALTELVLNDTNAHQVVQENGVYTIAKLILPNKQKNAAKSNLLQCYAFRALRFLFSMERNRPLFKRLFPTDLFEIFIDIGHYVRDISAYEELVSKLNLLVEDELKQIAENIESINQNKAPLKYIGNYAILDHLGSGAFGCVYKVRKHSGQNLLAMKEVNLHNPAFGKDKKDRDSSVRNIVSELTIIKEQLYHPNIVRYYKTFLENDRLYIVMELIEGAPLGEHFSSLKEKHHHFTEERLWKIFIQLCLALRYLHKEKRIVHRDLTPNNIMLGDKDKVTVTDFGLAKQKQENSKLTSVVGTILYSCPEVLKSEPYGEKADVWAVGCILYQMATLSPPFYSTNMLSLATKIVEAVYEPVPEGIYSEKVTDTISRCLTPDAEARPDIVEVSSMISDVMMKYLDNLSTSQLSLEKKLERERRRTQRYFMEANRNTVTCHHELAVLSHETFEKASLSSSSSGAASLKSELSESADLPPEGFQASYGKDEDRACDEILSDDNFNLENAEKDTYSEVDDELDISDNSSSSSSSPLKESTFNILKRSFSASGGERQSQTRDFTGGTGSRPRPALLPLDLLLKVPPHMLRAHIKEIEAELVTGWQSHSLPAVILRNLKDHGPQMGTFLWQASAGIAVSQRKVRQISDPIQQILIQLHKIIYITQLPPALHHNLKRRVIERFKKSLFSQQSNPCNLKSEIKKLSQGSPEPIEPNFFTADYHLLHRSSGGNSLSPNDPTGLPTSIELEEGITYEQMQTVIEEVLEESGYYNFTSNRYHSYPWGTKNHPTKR
Chain of Mitogen-activated protein kinase kinase kinase 11 (Homo sapiens) (Q16584 whole entry, looked up, the tested form may be a part): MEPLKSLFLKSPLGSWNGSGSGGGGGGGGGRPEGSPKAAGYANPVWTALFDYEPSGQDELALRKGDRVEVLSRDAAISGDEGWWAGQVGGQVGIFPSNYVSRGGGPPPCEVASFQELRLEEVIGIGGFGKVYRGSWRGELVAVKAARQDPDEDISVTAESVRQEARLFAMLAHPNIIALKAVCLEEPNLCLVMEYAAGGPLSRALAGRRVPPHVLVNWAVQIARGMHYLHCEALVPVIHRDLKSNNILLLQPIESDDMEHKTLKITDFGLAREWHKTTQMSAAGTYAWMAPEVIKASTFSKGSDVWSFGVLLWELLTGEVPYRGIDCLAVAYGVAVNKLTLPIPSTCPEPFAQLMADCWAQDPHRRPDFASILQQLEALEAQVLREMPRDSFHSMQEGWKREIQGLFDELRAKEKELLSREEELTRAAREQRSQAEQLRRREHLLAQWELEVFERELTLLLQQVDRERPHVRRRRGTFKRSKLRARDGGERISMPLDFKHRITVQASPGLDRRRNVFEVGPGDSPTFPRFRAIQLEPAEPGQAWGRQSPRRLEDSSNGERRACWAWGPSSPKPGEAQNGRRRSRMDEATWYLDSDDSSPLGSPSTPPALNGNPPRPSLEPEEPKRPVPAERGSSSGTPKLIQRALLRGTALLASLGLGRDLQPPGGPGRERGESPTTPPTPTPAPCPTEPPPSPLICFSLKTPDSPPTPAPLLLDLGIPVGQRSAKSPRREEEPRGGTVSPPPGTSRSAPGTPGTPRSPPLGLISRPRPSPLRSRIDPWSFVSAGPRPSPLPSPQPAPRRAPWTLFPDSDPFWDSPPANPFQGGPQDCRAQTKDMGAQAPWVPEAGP

Which results are given for `O=C(Nc1cccc([C@@H]2CN(c3ncnc4[nH]ccc34)CCN2CCO)c1)Nc1c(F)cccc1N1CCCC1`?
inhibition [1]: 0.05%; inhibition [2]: 81%; inhibition [3]: 86%; inhibition [4]: 69%; inhibition [5]: 89%; inhibition [6]: 88%; inhibition [7]: 26%; inhibition [8]: 39%; inhibition [9]: 73%; inhibition [10]: 65%; inhibition [11]: 42%; inhibition [12]: 100%; inhibition [13]: 30%; inhibition [14]: 97%

With `O=C(Nc1cccc([C@H]2CCCN(c3ncnc4[nH]ccc34)C2)c1)Nc1ccccc1N1CCCC1` as the compound, how does the inhibition [15] read?
The inhibition was 0.6%.

And the inhibition [16]?
The inhibition was 46%.

What about the inhibition [17] of the same compound?
The inhibition was 85%.

And the inhibition [18]?
Its inhibition is 99%.

And the inhibition [19]?
Its inhibition is 100%.

And the inhibition [20]?
Its inhibition is 4.3%.

And the inhibition [21]?
Its inhibition is 82%.

And the inhibition [22]?
Its inhibition is 87%.

And the inhibition [23]?
Its inhibition is 98%.

And the inhibition [24]?
Its inhibition is 85%.

What about the inhibition [25] of the same compound?
Its inhibition is 60%.

And the inhibition [26]?
Its inhibition is 24%.

Source: ChEMBL document CHEMBL4387741, “Optimization of novel reversible Bruton's tyrosine kinase inhibitors identified using Tethering-fragment-based screens” (Bioorg Med Chem, 2019)
